US8263083B2, “Combination therapy with antibody-drug conjugates” (priority 2007, dated 2012)
Where two headings read alike, the source gives them in different places.

Key:
[1] = tested on: L540cy HL tumors; assay: Antitumor activity on subcutaneous L540cy HL tumors in SCID mice; type: in vivo; conditions: for Median TGD (FIG. 6) (days to triple): Vinblastine q4dx3
Experimental: (§1) SCID mice were implanted with L540cy HL cells in the right flank.
as §1
(§2) SCID mice were implanted with L540cy HL cells in the right flank. Groups of mice (5-10/group) were untreated or received cAC10-vcMMAE (1 mg/kg, q4dx3, ip) alone, Gemcitabine (120 mg/kg, q4dx3, ip) alone, or combination treatment with cAC10-vcMMAE and Gemcitabine when tumor sizes averaged approximately 100 mm^3.
as §2, with “and Gemcitabine,” for “and Gemcitabine”, “approximately 300” for “approximately 100”
as §1, §1
(§3) SCID mice were implanted with L540cy HL cells in the right flank. Groups of mice (5-10/group) were untreated or received cAC10-vcMMAE (1 mg/kg, q4dx3, ip) alone, Vinorelbine alone (4 mg/kg q5dx3), or combination treatment cAC10-vcMMAE and vinorelbine when tumor sizes averaged approximately 100 mm^3.
as §3
as §3, with “Doxorubicin” for “Vinorelbine”, “(3” for “(4”, “q4dx3),” for “q5dx3),”, “treatment with” for “treatment”, “doxorubicin” for “vinorelbine”
as §3, with “Doxorubicin” for “Vinorelbine”, “(1.5” for “(4”, “q4dx3),” for “q5dx3),”, “treatment with” for “treatment”, “doxorubicin” for “vinorelbine”
SCID mice were implanted with L540cy HL cells in the right flank. Groups of mice (7-10/group) were untreated or received cAC10-vcMMAE (1 mg/kg, q4dx3, ip) alone, Vinblastine alone ([…] q4dx3), or combination treatment with cAC10-vcMMAE and vinblastine when tumor sizes averaged approximately 300 mm^3.
as §2, with “(6-8/group)” for “(5-10/group)”
as §1

[2] = tested on: relapsed or refractory HL; conditions: cited from earlier work
[3] = FIG. 5A, first experiment, ~100 mm^3, cAC10-vcMMAE 1 mg/kg q4dx3 ip, Doxorubicin 3 mg/kg q4dx3
[4] = FIG. 5B, second experiment, ~100 mm^3, cAC10-vcMMAE 1 mg/kg q4dx3 ip, Doxorubicin 1.5 mg/kg q4dx3
[5] = ~100 mm^3, cAC10-vcMMAE 1 mg/kg q4dx3 ip, Gemcitabine 120 mg/kg q4dx3 ip
[6] = ~300 mm^3, cAC10-vcMMAE 1 mg/kg q4dx3 ip, Gemcitabine 120 mg/kg q4dx3 ip
[7] = FIG. 7, second study, ~100 mm^3, cAC10-vcMMAE 1 mg/kg q4dx3 ip, Gemcitabine 120 mg/kg q4dx3 ip
[8] = FIG. 6, ~300 mm^3, cAC10-vcMMAE 1 mg/kg q4dx3 ip, Vinblastine 0/1 mg/kg q4dx3
[9] = FIG. 6, ~300 mm^3, cAC10-vcMMAE 1 mg/kg q4dx3 ip
[10] = FIG. 4A, first experiment, ~100 mm^3, cAC10-vcMMAE 1 mg/kg q4dx3 ip, Vinorelbine 4 mg/kg q5dx3
[11] = FIG. 4B, second experiment, ~100 mm^3, cAC10-vcMMAE 1 mg/kg q4dx3 ip, Vinorelbine 4 mg/kg q5dx3

Compound | Median TGD (FIG. 5A) (days to quadruple) [1, 3] | durable responses, animals/group [1, 3] | Median TGD (FIG. 5B) (days to quadruple) [1, 4] | durable responses, animals/group [1, 4] | Median TGD (FIG. 2A) (days to quadruple) [1, 5] | Median TGD (FIG. 2B) (days to triplicate) [1, 6] | Median TGD (FIG. 7) (days to quadruple) [1, 7] | durable responses, animals/group [1, 7] | durable responses, animals/group [1, 8] | Median TGD (FIG. 6) (days to triple) [1, 9] | Median TGD (FIG. 4A) (days to quadruple) [1, 10] | durable responses, animals/group [1, 10] | Median TGD (FIG. 4B) (days to quadruple) [1, 11] | durable responses, animals/group [1, 11] | also measured
COc1cccc2c1C(=O)c1c(O)c3c(c(O)c1C2=O)C[C@@](O)(C(=O)CO)C[C@@H]3O[C@H]1C[C@H](N)[C@H](O)[C@H](C)O1 [Doxorubicin, reference compound] | 32 days | 0/3 | 27.2 days | 0/9 |  |  |  |  |  |  |  |  |  |  | 
Nc1ccn([C@@H]2O[C@H](CO)[C@@H](O)C2(F)F)c(=O)n1 [Gemcitabine, 4-amino-1-[(2R,4R,5R)-3,3-difluoro-4-hydroxy-5-(hydroxymethyl)oxolan-2-yl]pyrimidin-2-one, reference compound] |  |  |  |  | 5 days | 15.5 days | 42 days | 1/6 |  |  |  |  |  |  | response rates ([2]; relapsed/refractory setting, majority of patients with prior autologous or allogeneic transplant, Venkatesh et al. 2004): 22%; response rates ([2]; transplant naive setting, relapsed or refractory HL patients, Santoro et al. 2000): 39%; durable responses, animals/group ([1]; FIG. 8, at day 51, experiment not yet complete, ~100 mm^3, cAC10-mcMMAF 1 mg/kg q4dx3 ip, Gemcitabine 120 mg/kg q4dx3 ip): 0/10
CC[C@]1(O)C[C@@H]2CN(CCc3c([nH]c4ccccc34)[C@@](C(=O)OC)(c3cc4c(cc3OC)N(C)[C@H]3[C@@](O)(C(=O)OC)[C@H](OC(C)=O)[C@]5(CC)C=CCN6CC[C@]43[C@@H]65)C2)C1 [Vinblastine, reference compound] |  |  |  |  |  |  |  |  | 0/10 | 30.93 days |  |  |  |  | 
CCC1=C[C@@H]2CN(C1)Cc1c([nH]c3ccccc13)[C@@](C(=O)OC)(c1cc3c(cc1OC)N(C)[C@H]1[C@@](O)(C(=O)OC)[C@H](OC(C)=O)[C@]4(CC)C=CCN5CC[C@]31[C@@H]54)C2 [Vinorelbine, reference compound] |  |  |  |  |  |  |  |  |  |  | 28 days | 0/6 | 34.4 days | 0/9 | 
cAC10-vcMMAE: antibody-drug conjugate: chimeric AC10 anti-CD30 antibody linked via MC-val-cit-PAB to monomethyl auristatin E | 64 days | 1/6 | 78.8 days | 4/10 | 34 days | 39.5 days | 78.01 days | 1/7 | 1/8 | 45.9 days | 64 days | 1/6 | 78.8 days | 4/10 | effect on tumors compared to control treatment ([1]; FIG. 1A, monotherapy, tumors eventually progressed): induced tumor regressions and significant tumor growth delays; Median TGD (FIG. 1A) (days to quadruple) ([1]; FIG. 1A, treatment started at tumor size ~100 mm^3, cAC10-vcMMAE 1 mg/kg q4dx3 ip, ABVD: Adriamycin 1 mg/kg q4dx3 iv, Bleomycin 7.5 u/kg q4dx3 ip, Vinblastine 0.015 mg/kg q4dx3 ip, Dacarbazine 20 mg/kg q3dx4 ip): 63 days; durable responses (durable tumor regressions; absence of palpable tumor), animals/group ([1]; FIG. 1A, ~100 mm^3, cAC10-vcMMAE 1 mg/kg q4dx3 ip, ABVD full dose): 4/9; Median TGD (FIG. 1B) (days to triple) ([1]; FIG. 1B, treatment started at ~300 mm^3, cAC10-vcMMAE 1 mg/kg q4dx3 ip, ABVD: Adriamycin 0.75 mg/kg q4dx3 iv, Bleomycin 6 u/kg q4dx3 ip, Vinblastine 0.01 mg/kg q4dx3 ip, Dacarbazine 15 mg/kg q3dx4 ip): 41 days; durable responses, animals/group ([1]; FIG. 1B, ~300 mm^3, cAC10-vcMMAE 1 mg/kg q4dx3 ip, ABVD dosages reduced by 25%): 2/10; durable responses, animals/group ([1]; FIG. 3A, first experiment, ~100 mm^3, cAC10-vcMMAE 1 mg/kg q4dx3 ip, GVD): 4/9; Median TGD (FIG. 3A) (days to quadruple) ([1]; FIG. 3A, first experiment, ~100 mm^3, cAC10-vcMMAE 1 mg/kg q4dx3 ip, GVD: gemcitabine 60 mg/kg q4dx3 ip, vinorelbine 2 mg/kg q5dx3 ip, doxorubicin 1.5 mg/kg q4dx3 iv): 84.6 days; durable responses, animals/group ([1]; FIG. 3B, second experiment, ~100 mm^3, cAC10-vcMMAE 1 mg/kg q4dx3 ip, GVD): 0/7; Median TGD (FIG. 3B) (days to quadruple) ([1]; FIG. 3B, second experiment, ~100 mm^3, cAC10-vcMMAE 1 mg/kg q4dx3 ip, GVD: gemcitabine 60 mg/kg q4dx3 ip, vinorelbine 2 mg/kg q5dx3 ip, doxorubicin 1.5 mg/kg q4dx3 iv): 54.7 days
